These compounds were tested against T1, Fucose-binding lectin PA-IIL (Pseudomonas aeruginosa (strain ATCC 15692 / DSM 22644 / CIP 104116 / JCM 14847 / LMG 12228 / 1C / PRS 101 / PAO1), UniProt Q9HYN5).
T1 sequence (Q9HYN5 whole entry): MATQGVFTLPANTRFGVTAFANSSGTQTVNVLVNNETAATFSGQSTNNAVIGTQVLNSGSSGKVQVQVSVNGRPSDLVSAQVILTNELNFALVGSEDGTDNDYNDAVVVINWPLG
`CC1O[C@@H](OCCNC(=S)Nc2ccc(-c3c4ccc(=O)cc-4oc4cc(O)ccc34)c(C(=O)O)c2)[C@@H](O)C(O)[C@@H]1O` (some centres not stated) [LecB Inhibitor Ligand 6] gave an EC50 of 0.697 µM.

Biological target: T1, Fucose-binding lectin PA-IIL
Remark: another data set of the same source
With `COC1O[C@H](CNC(C)=O)[C@@H](O)C(O)[C@@H]1O` (some centres not stated) [LecB Inhibitor Amides 4a] the IC50 was 281 µM.
Work on `COC1O[C@H](CNC(=O)c2ccc([N+](=O)O)cc2)[C@@H](O)C(O)[C@@H]1O` (some centres not stated) [LecB Inhibitor Amides 4c] yielded an IC50 of 75.8 µM.
Compound `COC1O[C@H](CNC(=O)c2cc([N+](=O)O)cc([N+](=O)O)c2)[C@@H](O)C(O)[C@@H]1O` (some centres not stated) [LecB Inhibitor Amides 4d] has an IC50 of 121 µM.
With `COC1O[C@H](CNC(=O)Cc2ccccc2)[C@@H](O)C(O)[C@@H]1O` (some centres not stated) [LecB Inhibitor Amides 4e] the IC50 was 73.8 µM.
In the case of `COC1O[C@H](CNC(=O)C(c2ccccc2)c2ccccc2)[C@@H](O)C(O)[C@@H]1O` (some centres not stated) [LecB Inhibitor Amides 4f], the IC50 is reported as 161 µM.
`COC1O[C@H](CNCc2ccccc2)[C@@H](O)C(O)[C@@H]1O` (some centres not stated) [LecB Inhibitor Amines 3a] was tested, and the IC50 was 227 µM.
`COC1O[C@H](CNCc2ccc([N+](=O)O)cc2)[C@@H](O)C(O)[C@@H]1O` (some centres not stated) [LecB Inhibitor Amines 3b] gave an IC50 of 117 µM.
In the case of `COC1O[C@H](CNCc2ccc(C#N)cc2)[C@@H](O)C(O)[C@@H]1O` (some centres not stated) [LecB Inhibitor Amines 3c], the IC50 is reported as 115 µM.
`COC1O[C@H](CNCc2ccc(Cl)cc2)[C@@H](O)C(O)[C@@H]1O` (some centres not stated) [LecB Inhibitor Amines 3d] gave an IC50 of 212 µM.
For `COC1O[C@H](CN)[C@@H](O)C(O)[C@@H]1O` (some centres not stated) [LecB Inhibitor Amines 3e], the IC50 was 353 µM.
With `CC1O[C@@H](OCCNC(=S)Nc2ccc(-c3c4ccc(=O)cc-4oc4cc(O)ccc34)c(C(=O)O)c2)[C@@H](O)C(O)[C@@H]1O` (some centres not stated) [LecB Inhibitor Ligand 6] the IC50 was 2.74 µM.
`COC1O[C@H](CNS(=O)(=O)c2ccc(C)cc2)[C@@H](O)C(O)[C@@H]1O` (some centres not stated) [LecB Inhibitor Sulfonamides 5b] showed an IC50 of 49.7 µM.
Compound `COC1O[C@H](CNS(=O)(=O)c2ccc(Br)cc2)[C@@H](O)C(O)[C@@H]1O` (some centres not stated) [LecB Inhibitor Sulfonamides 5c] has an IC50 of 20.9 µM.
With `COC1O[C@H](CNS(=O)(=O)c2ccc([N+](=O)O)cc2)[C@@H](O)C(O)[C@@H]1O` (some centres not stated) [LecB Inhibitor Sulfonamides 5d] the IC50 was 36.1 µM.
With `COC1O[C@H](CNS(=O)(=O)/C=C/c2ccccc2)[C@@H](O)C(O)[C@@H]1O` (some centres not stated) [LecB Inhibitor Sulfonamides 5g] the IC50 was 86.9 µM.
Work on `COC1O[C@H](Cn2cc(CO)nn2)[C@@H](O)C(O)[C@@H]1O` (some centres not stated) [LecB Inhibitor Triazoles 2a] yielded an IC50 of 578 µM.
`COC1O[C@H](Cn2cc(CCc3ccccc3)nn2)[C@@H](O)C(O)[C@@H]1O` (some centres not stated) [LecB Inhibitor Triazoles 2b] was tested, and the IC50 was 264 µM.
`COC1O[C@H](Cn2cc(-c3ccccc3)nn2)[C@@H](O)C(O)[C@@H]1O` (some centres not stated) [LecB Inhibitor Triazoles 2c] showed an IC50 of 373 µM.
For `COC1O[C@H](Cn2cc(-c3cccc(C)c3)nn2)[C@@H](O)C(O)[C@@H]1O` (some centres not stated) [LecB Inhibitor Triazoles 2d], the IC50 was 279 µM.
With `COC1O[C@H](Cn2cc(-c3ccc(C)cc3)nn2)[C@@H](O)C(O)[C@@H]1O` (some centres not stated) [LecB Inhibitor Triazoles 2e] the IC50 was 294 µM.
`COC1O[C@H](Cn2cc(-c3ccc(F)cc3)nn2)[C@@H](O)C(O)[C@@H]1O` (some centres not stated) [LecB Inhibitor Triazoles 2g] was tested, and the IC50 was 240 µM.

Reference: BindingDB's records for doi:10.1021/cb400371r (University of Konstanz, 2013)
